Results reported in ChEMBL document CHEMBL3414527, “Engineering potent and selective analogues of GpTx-1, a tarantula venom peptide antagonist of the Na(V)1.7 sodium channel” (J Med Chem, 2015).
pIC50: −log10 of the molar value. Bridge positions count the residues as written; N and C are the ends. Peptide text beside a SMILES is read from it.

Target: Sodium channel protein type 5 subunit alpha (Homo sapiens, UniProt Q14524)
Assay: Inhibition of human NaV1.5 at -140 mV holding potential by whole-cell patch clamp assay

Sodium channel protein type 5 subunit alpha, sequence (Q14524 whole entry): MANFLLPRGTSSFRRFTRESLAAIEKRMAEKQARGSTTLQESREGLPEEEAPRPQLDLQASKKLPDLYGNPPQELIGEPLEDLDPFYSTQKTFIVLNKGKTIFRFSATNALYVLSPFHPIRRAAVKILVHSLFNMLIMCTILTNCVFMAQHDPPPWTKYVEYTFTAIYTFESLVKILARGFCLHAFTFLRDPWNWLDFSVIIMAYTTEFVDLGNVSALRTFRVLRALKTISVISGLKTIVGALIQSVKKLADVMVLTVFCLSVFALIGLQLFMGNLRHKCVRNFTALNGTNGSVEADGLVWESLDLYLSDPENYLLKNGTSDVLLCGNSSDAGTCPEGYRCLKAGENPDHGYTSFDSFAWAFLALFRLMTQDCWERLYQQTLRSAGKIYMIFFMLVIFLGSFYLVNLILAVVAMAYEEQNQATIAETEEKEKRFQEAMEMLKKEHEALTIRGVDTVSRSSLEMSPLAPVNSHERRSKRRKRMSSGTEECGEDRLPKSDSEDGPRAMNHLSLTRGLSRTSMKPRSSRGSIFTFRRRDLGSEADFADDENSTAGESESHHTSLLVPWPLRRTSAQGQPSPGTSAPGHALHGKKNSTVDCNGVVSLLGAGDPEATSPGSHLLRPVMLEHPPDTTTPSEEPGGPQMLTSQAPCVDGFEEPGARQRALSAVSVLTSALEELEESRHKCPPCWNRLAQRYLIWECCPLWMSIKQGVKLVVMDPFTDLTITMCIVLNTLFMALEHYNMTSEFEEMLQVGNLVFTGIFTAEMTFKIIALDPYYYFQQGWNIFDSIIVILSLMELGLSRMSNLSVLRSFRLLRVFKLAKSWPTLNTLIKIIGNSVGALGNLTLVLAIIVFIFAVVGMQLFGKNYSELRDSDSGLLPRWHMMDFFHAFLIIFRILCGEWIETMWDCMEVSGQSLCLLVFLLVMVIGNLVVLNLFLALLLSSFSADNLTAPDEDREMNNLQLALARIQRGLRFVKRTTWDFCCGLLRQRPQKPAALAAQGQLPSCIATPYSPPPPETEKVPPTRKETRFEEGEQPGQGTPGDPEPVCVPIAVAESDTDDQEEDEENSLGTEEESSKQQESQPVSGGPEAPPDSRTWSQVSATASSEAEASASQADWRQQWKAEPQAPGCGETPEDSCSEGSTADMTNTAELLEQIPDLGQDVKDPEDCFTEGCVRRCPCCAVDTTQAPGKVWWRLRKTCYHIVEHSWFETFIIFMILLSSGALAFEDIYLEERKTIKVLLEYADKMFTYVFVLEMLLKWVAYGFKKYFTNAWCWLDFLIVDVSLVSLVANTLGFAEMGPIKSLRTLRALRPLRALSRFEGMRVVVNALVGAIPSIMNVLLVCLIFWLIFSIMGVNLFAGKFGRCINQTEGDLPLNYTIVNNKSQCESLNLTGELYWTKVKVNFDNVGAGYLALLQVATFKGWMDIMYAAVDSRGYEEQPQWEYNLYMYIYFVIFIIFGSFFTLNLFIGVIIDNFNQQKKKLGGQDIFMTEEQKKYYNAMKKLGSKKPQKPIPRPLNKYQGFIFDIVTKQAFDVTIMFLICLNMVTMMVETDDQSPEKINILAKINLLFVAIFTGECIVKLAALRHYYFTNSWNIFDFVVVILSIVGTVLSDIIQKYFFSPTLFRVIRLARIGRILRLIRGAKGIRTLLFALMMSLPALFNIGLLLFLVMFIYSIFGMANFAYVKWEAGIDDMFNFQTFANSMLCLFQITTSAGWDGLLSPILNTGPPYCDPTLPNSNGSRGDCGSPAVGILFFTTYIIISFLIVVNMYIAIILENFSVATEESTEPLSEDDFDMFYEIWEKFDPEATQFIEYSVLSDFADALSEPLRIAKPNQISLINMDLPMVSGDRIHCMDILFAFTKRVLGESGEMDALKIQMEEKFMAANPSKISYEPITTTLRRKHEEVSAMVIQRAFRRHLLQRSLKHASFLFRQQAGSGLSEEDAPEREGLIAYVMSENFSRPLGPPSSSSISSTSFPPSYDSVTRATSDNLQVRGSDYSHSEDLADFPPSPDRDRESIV

SMILES | pIC50
CCCC[C@@H]1NC(=O)[C@H](C)NC(=O)CNC(=O)[C@H](CC(C)C)NC(=O)[C@@H](NC(=O)[C@@H](N)CC(=O)O)CSSC[C@@H]2NC(=O)[C@@H]3CSSC[C@@H](C(=O)N[C@@H](CCCCN)C(=O)N[C@@H](Cc4ccc(O)cc4)C(=O)N[C@H](C(=O)N[C@@H](Cc4ccccc4)C(N)=O)C(C)C)NC(=O)[C@H](Cc4c[nH]c5ccccc45)NC(=O)[C@H](CCCCN)NC(=O)[C@H](Cc4cnc[nH]4)NC(=O)[C@H]([C@@H](C)O)NC(=O)[C@H](CCCNC(=N)N)NC(=O)[C@H](CO)NC(=O)[C@H](CSSC[C@H](NC(=O)[C@H](CCCCN)NC(=O)[C@H](CCCNC(=N)N)NC1=O)C(=O)N[C@@H]([C@@H](C)CC)C(=O)N1CCC[C@H]1C(=O)N[C@@H](CC(=O)O)C(=O)N[C@@H](CC(N)=O)C(=O)N[C@@H](CC(=O)O)C(=O)N[C@@H](CCCCN)C(=O)N3)NC(=O)[C@H](C(C)C)NC(=O)[C@H](CC(C)C)NC(=O)[C@H](CC(N)=O)NC(=O)[C@@H]1CCCN1C(=O)[C@H](CCCNC(=N)N)NC2=O | < 5.00
CC[C@H](C)[C@@H]1NC(=O)[C@@H]2CSSC[C@@H]3NC(=O)[C@H](C)NC(=O)[C@H](CC(C)C)NC(=O)[C@H](CC(N)=O)NC(=O)[C@@H]4CCCN4C(=O)[C@H](CCCNC(=N)N)NC(=O)[C@H](CSSC[C@H](NC(=O)[C@@H](N)CC(=O)O)C(=O)N[C@@H](CC(C)C)C(=O)NCC(=O)N[C@@H](Cc4ccccc4)C(=O)N[C@@H](CCSC)C(=O)N[C@@H](CCCNC(=N)N)C(=O)N[C@@H](CCCCN)C(=O)N2)NC(=O)[C@H](CSSC[C@@H](C(=O)N[C@@H](CCCCN)C(=O)N[C@@H](Cc2ccc(O)cc2)C(=O)N[C@H](C(=O)N[C@@H](Cc2ccccc2)C(N)=O)C(C)C)NC(=O)[C@H](Cc2c[nH]c4ccccc24)NC(=O)[C@H](CCCCN)NC(=O)[C@H](Cc2cnc[nH]2)NC(=O)[C@H]([C@@H](C)O)NC(=O)[C@H](CCCNC(=N)N)NC(=O)[C@H](CO)NC3=O)NC(=O)[C@H](CCCCN)NC(=O)[C@H](CC(=O)O)NC(=O)[C@H](CC(N)=O)NC(=O)[C@H](CC(=O)O)NC(=O)[C@@H]2CCCN2C1=O (H-DCLGFMRKCIPDNDKCCRPNLACSRTHKWCKYVF-NH2; disulfide 2-17, 9-23, 16-30) | < 5.30
CCCC[C@@H]1NC(=O)[C@H](Cc2ccccc2)NC(=O)CNC(=O)[C@H](CC(C)C)NC(=O)[C@@H](NC(=O)[C@@H](N)CC(=O)O)CSSC[C@@H]2NC(=O)[C@@H]3CSSC[C@@H](C(=O)N[C@@H](CCCCN)C(=O)N[C@@H](Cc4ccc(O)cc4)C(=O)N[C@H](C(=O)N[C@@H](Cc4ccccc4)C(N)=O)C(C)C)NC(=O)[C@H](Cc4c[nH]c5ccccc45)NC(=O)[C@H](CCCCN)NC(=O)[C@H](Cc4cnc[nH]4)NC(=O)[C@H]([C@@H](C)O)NC(=O)[C@H](CCCNC(=N)N)NC(=O)[C@H](CO)NC(=O)[C@H](CSSC[C@H](NC(=O)[C@H](CCCCN)NC(=O)[C@H](CCCNC(=N)N)NC1=O)C(=O)N[C@@H]([C@@H](C)CC)C(=O)N1CCC[C@H]1C(=O)N[C@@H](CC(=O)O)C(=O)N[C@@H](CC(N)=O)C(=O)N[C@@H](CC(=O)O)C(=O)N[C@@H](CCCCN)C(=O)N3)NC(=O)[C@H](C(C)C)NC(=O)[C@H](CC(C)C)NC(=O)[C@H](CC(N)=O)NC(=O)[C@@H]1CCCN1C(=O)[C@H](CCCNC(=N)N)NC2=O | 5.96
CC[C@H](C)[C@@H]1NC(=O)[C@@H]2CSSC[C@@H]3NC(=O)[C@H](C(C)C)NC(=O)[C@H](CC(C)C)NC(=O)[C@H](CC(N)=O)NC(=O)[C@@H]4CCCN4C(=O)[C@H](CCCNC(=N)N)NC(=O)[C@H](CSSC[C@H](NC(=O)[C@@H](N)CC(=O)O)C(=O)N[C@@H](CC(C)C)C(=O)NCC(=O)N[C@@H](Cc4ccccc4)C(=O)N[C@@H](CCSC)C(=O)N[C@@H](CCCNC(=N)N)C(=O)N[C@@H](CCCCN)C(=O)N2)NC(=O)[C@H](CSSC[C@@H](C(=O)N[C@@H](CCCCN)C(=O)N[C@@H](C)C(=O)N[C@H](C(=O)N[C@@H](Cc2ccccc2)C(N)=O)C(C)C)NC(=O)[C@H](Cc2c[nH]c4ccccc24)NC(=O)[C@H](CCCCN)NC(=O)[C@H](Cc2cnc[nH]2)NC(=O)[C@H]([C@@H](C)O)NC(=O)[C@H](CCCNC(=N)N)NC(=O)[C@H](CO)NC3=O)NC(=O)[C@H](CCCCN)NC(=O)[C@H](CC(=O)O)NC(=O)[C@H](CC(N)=O)NC(=O)[C@H](CC(=O)O)NC(=O)[C@@H]2CCCN2C1=O (H-DCLGFMRKCIPDNDKCCRPNLVCSRTHKWCKAVF-NH2; disulfide 2-17, 9-23, 16-30) | < 5.30
CC[C@H](C)[C@@H]1NC(=O)[C@@H]2CSSC[C@@H]3NC(=O)[C@H](C(C)C)NC(=O)[C@H](CC(C)C)NC(=O)[C@H](CC(N)=O)NC(=O)[C@@H]4CCCN4C(=O)[C@H](CCCNC(=N)N)NC(=O)[C@H](CSSC[C@H](NC(=O)[C@@H](N)CC(=O)O)C(=O)N[C@@H](CC(C)C)C(=O)NCC(=O)N[C@@H](Cc4ccccc4)C(=O)N[C@@H](CCSC)C(=O)N[C@@H](C)C(=O)N[C@@H](CCCCN)C(=O)N2)NC(=O)[C@H](CSSC[C@@H](C(=O)N[C@@H](CCCCN)C(=O)N[C@@H](Cc2ccc(O)cc2)C(=O)N[C@H](C(=O)N[C@@H](Cc2ccccc2)C(N)=O)C(C)C)NC(=O)[C@H](Cc2c[nH]c4ccccc24)NC(=O)[C@H](CCCCN)NC(=O)[C@H](Cc2cnc[nH]2)NC(=O)[C@H]([C@@H](C)O)NC(=O)[C@H](CCCNC(=N)N)NC(=O)[C@H](CO)NC3=O)NC(=O)[C@H](CCCCN)NC(=O)[C@H](CC(=O)O)NC(=O)[C@H](CC(N)=O)NC(=O)[C@H](CC(=O)O)NC(=O)[C@@H]2CCCN2C1=O (H-DCLGFMAKCIPDNDKCCRPNLVCSRTHKWCKYVF-NH2; disulfide 2-17, 9-23, 16-30) | < 5.30
CC[C@H](C)[C@@H]1NC(=O)[C@@H]2CSSC[C@@H]3NC(=O)[C@H](C(C)C)NC(=O)[C@H](CC(C)C)NC(=O)[C@H](CC(N)=O)NC(=O)[C@@H]4CCCN4C(=O)[C@H](CCCNC(=N)N)NC(=O)[C@H](CSSC[C@H](NC(=O)[C@@H](N)CC(=O)O)C(=O)N[C@@H](CC(C)C)C(=O)NCC(=O)N[C@@H](Cc4ccccc4)C(=O)N[C@@H](CCSC)C(=O)N[C@@H](CCCNC(=N)N)C(=O)N[C@@H](CCCCN)C(=O)N2)NC(=O)[C@H](CSSC[C@@H](C(=O)N[C@@H](CCCCN)C(=O)N[C@@H](Cc2ccc(O)cc2)C(=O)N[C@H](C(=O)N[C@@H](Cc2ccccc2)C(N)=O)C(C)C)NC(=O)[C@H](Cc2c[nH]c4ccccc24)NC(=O)[C@H](CCCCN)NC(=O)[C@H](Cc2cnc[nH]2)NC(=O)[C@H]([C@@H](C)O)NC(=O)[C@H](CCCNC(=N)N)NC(=O)[C@H](CO)NC3=O)NC(=O)[C@H](CCCCN)NC(=O)[C@H](CC(=O)O)NC(=O)[C@H](CC(N)=O)NC(=O)[C@H](C)NC(=O)[C@@H]2CCCN2C1=O (H-DCLGFMRKCIPANDKCCRPNLVCSRTHKWCKYVF-NH2; disulfide 2-17, 9-23, 16-30) | < 5.30
CC[C@H](C)[C@@H]1NC(=O)[C@@H]2CSSC[C@@H]3NC(=O)[C@H](C(C)C)NC(=O)[C@H](CC(C)C)NC(=O)[C@H](CC(N)=O)NC(=O)[C@@H]4CCCN4C(=O)[C@H](CCCNC(=N)N)NC(=O)[C@H](CSSC[C@H](NC(=O)[C@H](C)N)C(=O)N[C@@H](CC(C)C)C(=O)NCC(=O)N[C@@H](Cc4ccccc4)C(=O)N[C@@H](CCSC)C(=O)N[C@@H](CCCNC(=N)N)C(=O)N[C@@H](CCCCN)C(=O)N2)NC(=O)[C@H](CSSC[C@@H](C(=O)N[C@@H](CCCCN)C(=O)N[C@@H](Cc2ccc(O)cc2)C(=O)N[C@H](C(=O)N[C@@H](Cc2ccccc2)C(N)=O)C(C)C)NC(=O)[C@H](Cc2c[nH]c4ccccc24)NC(=O)[C@H](CCCCN)NC(=O)[C@H](Cc2cnc[nH]2)NC(=O)[C@H]([C@@H](C)O)NC(=O)[C@H](CCCNC(=N)N)NC(=O)[C@H](CO)NC3=O)NC(=O)[C@H](CCCCN)NC(=O)[C@H](CC(=O)O)NC(=O)[C@H](CC(N)=O)NC(=O)[C@H](CC(=O)O)NC(=O)[C@@H]2CCCN2C1=O (H-ACLGFMRKCIPDNDKCCRPNLVCSRTHKWCKYVF-NH2; disulfide 2-17, 9-23, 16-30) | < 5.30
CC[C@H](C)[C@@H]1NC(=O)[C@@H]2CSSC[C@@H]3NC(=O)[C@H](C(C)C)NC(=O)[C@H](CC(C)C)NC(=O)[C@H](CC(N)=O)NC(=O)[C@@H]4CCCN4C(=O)[C@H](CCCNC(=N)N)NC(=O)[C@H](CSSC[C@H](NC(=O)[C@@H](N)CC(=O)O)C(=O)N[C@@H](CC(C)C)C(=O)NCC(=O)N[C@@H](Cc4ccccc4)C(=O)N[C@@H](CCSC)C(=O)N[C@@H](CCCNC(=N)N)C(=O)N[C@@H](CCCCN)C(=O)N2)NC(=O)[C@H](CSSC[C@@H](C(=O)N[C@@H](CCCCN)C(=O)N[C@@H](Cc2ccc(O)cc2)C(=O)N[C@H](C(=O)N[C@@H](Cc2ccccc2)C(N)=O)C(C)C)NC(=O)[C@H](Cc2c[nH]c4ccccc24)NC(=O)[C@H](CCCCN)NC(=O)[C@H](Cc2cnc[nH]2)NC(=O)[C@H]([C@@H](C)O)NC(=O)[C@H](CCCNC(=N)N)NC(=O)[C@H](C)NC3=O)NC(=O)[C@H](CCCCN)NC(=O)[C@H](CC(=O)O)NC(=O)[C@H](CC(N)=O)NC(=O)[C@H](CC(=O)O)NC(=O)[C@@H]2CCCN2C1=O (H-DCLGFMRKCIPDNDKCCRPNLVCARTHKWCKYVF-NH2; disulfide 2-17, 9-23, 16-30) | < 5.33
CC[C@H](C)[C@@H]1NC(=O)[C@@H]2CSSC[C@@H]3NC(=O)[C@H](C(C)C)NC(=O)[C@H](CC(C)C)NC(=O)[C@H](CC(N)=O)NC(=O)[C@@H]4CCCN4C(=O)[C@H](CCCNC(=N)N)NC(=O)[C@H](CSSC[C@H](NC(=O)[C@@H](N)CC(=O)O)C(=O)N[C@@H](CC(C)C)C(=O)NCC(=O)N[C@@H](C4CCCC4)C(=O)N[C@@H](CCSC)C(=O)N[C@@H](CCCNC(=N)N)C(=O)N[C@@H](CCCCN)C(=O)N2)NC(=O)[C@H](CSSC[C@@H](C(=O)N[C@@H](CCCCN)C(=O)N[C@@H](Cc2ccc(O)cc2)C(=O)N[C@H](C(=O)N[C@@H](Cc2ccccc2)C(N)=O)C(C)C)NC(=O)[C@H](Cc2c[nH]c4ccccc24)NC(=O)[C@H](CCCCN)NC(=O)[C@H](Cc2cnc[nH]2)NC(=O)[C@H]([C@@H](C)O)NC(=O)[C@H](CCCNC(=N)N)NC(=O)[C@H](CO)NC3=O)NC(=O)[C@H](CCCCN)NC(=O)[C@H](CC(=O)O)NC(=O)[C@H](CC(N)=O)NC(=O)[C@H](CC(=O)O)NC(=O)[C@@H]2CCCN2C1=O | < 5.00
